In patent US20230346785A1, “4-PYRROLIDIN-1-Yl-5-P-TOLYL-THIENO[2,3-D] PYRIMIDINE FOR USE IN THE TREATMENT OF AGING-ASSOCIATED AND PREMATURE AGING DISEASES THROUGH RESTORED CHROMOSOMAL STABILITY AND INHIBITION OF CELLULAR SENESCENCE” (IBMC - INSTITUTO DE BIOLOGIA MOLECULAR E CELULAR, priority 2020, published 2023):

Experiments:
Type in all cases: cell-based
[1] = test system: elderly human dermal fibroblasts (HDF); assay: Calcium-stable k-fiber intensity analysis in metaphase; details: 1 µM
Description: Human dermal fibroblasts (HDFs) retrieved from skin samples of neonatal (No. GM21811, Coriell Institute; No. DFM021711A, Zen Bio) and octogenarian (No. AG07135; AG13993; AG09271; AG10884; all from Coriell Institute) were used. All donors were reported as “healthy”. For all experiments, HDFs were seeded at 1x10^4 cells per cm2 of growth area in minimal essential medium Eagle-Earle (MEM) supplemented with 15% fetal bovine serum (FBS), 2 mM L-glutamine, and 1x antibiotic-antimycotic (all from Gibco, Thermo Fisher Scientific). Only early passage dividing fibroblasts (up to passage 3-5) with cumulative population doubling level PDL < 24 were used. […]
In fluorescence microscopy, cells with calcium-stabilized k-fibers or stained for specific kinetochore/centromere-bound proteins (Aurora B/Aim-1, Hec1/Ndc80, MCAK, Plk1, pAuroraB T232 and ACA) were imaged using a Zeiss AxioImager Z1 (Carl Zeiss, Oberkochen, Germany) motorized upright epifluorescence microscope, equipped with an Axiocam MR camera and operated by the Zeiss Axiovision v4.7 software. […]
(§1) For image analysis, both live-cell phenotypes (mitotic duration, lagging chromosomes) and fixed-cell experiments (protein intensity, k-fiber intensity, KT distances, FISH, MN counts, cGAS positivity and SA biomarkers) were blindly quantified using ImageJ/Fiji software. […] DNA aggregates co-localizing with cGAS were scored as MN positive for cGAS. […]

[2] = test system: elderly human dermal fibroblasts (HDF); assay: Cyto-D FISH chromosome mis-segregation in cytokinesis-blocked binucleated (BN) cells; details: 1 µM
Description: (§2) Human dermal fibroblasts (HDFs) retrieved from skin samples of neonatal (No. GM21811, Coriell Institute; No. DFM021711A, Zen Bio) and octogenarian (No. AG07135; AG13993; AG09271; AG10884; all from Coriell Institute) were used. All donors were reported as “healthy”. For all experiments, HDFs were seeded at 1x10^4 cells per cm2 of growth area in minimal essential medium Eagle-Earle (MEM) supplemented with 15% fetal bovine serum (FBS), 2 mM L-glutamine, and 1x antibiotic-antimycotic (all from Gibco, Thermo Fisher Scientific). Only early passage dividing fibroblasts (up to passage 3-5) with cumulative population doubling level PDL < 24 were used.
Proteasome inhibitor MG-132 (474790, EMD Millipore) was used at 5 µM for 2 hrs to arrest cells at the metaphase stage. Cytochalasin D (C8273, Sigma-Aldrich) was used at 1 µM for 24 hrs to block cytokinesis. Fibroblasts were treated with 2.5 µM STLC (2191, TOCRIS) for 5 hrs to inhibit kinesin-5 activity and induce monopolar spindles, followed by a washout into fresh medium with 500 nM of Aurora kinase B inhibitor ZM447439 (S1103, Selleckchem) to potentiate chromosome segregation errors. […]
(§3) FISH was used to score aneusomy indexes (Interphase FISH; FIGS. 4D, 5C) and chromosome mis-segregation (MS) rates. MS rates were scored by Cyto-D FISH (FIGS. 4E and 5D), or by FISH on STLC-washed-out fibroblasts (FIGS. 1G,H). […]

[3] = test system: elderly human dermal fibroblasts (HDF); assay: Interphase FISH aneusomy index of chromosomes 7, 12 and 18; details: 1 µM
Description: as §2
For FISH, MN counts, cGAS immunofluorescence and SA biomarkers, images were captured with the IN Cell Analyzer 2000 (GE Healthcare, UK) equipped with a Photometrics CoolSNAP K4 camera and driven by the GE IN Cell Analyzer 2000 v5.2 software, using a Nikon 20x/0.45 NA Plan Fluor objective and a Nikon 40x/0.95 NA Plan Fluor objective, respectively.
1 µM of UMK57 was used to enhance kinesin-13 activity during the time periods indicated for each experiment.
as §3

[4] = test system: elderly human dermal fibroblasts (HDF); assay: SA-β-galactosidase activity assay; details: 1 µM
Description: as §2
as §1, with “cGAS. For the analysis of SA biomarkers (53bpl/p21 and SA-β-galactosidase), fluorescence intensity thresholds were set and used consistently for all samples within each experiment.” for “cGAS.”

[5] = test system: elderly human dermal fibroblasts (HDF); assay: 53BP1/p21 double immunostaining senescence biomarkers; details: 1 µM
Description: as §2
For immunofluorescence, fibroblasts were grown on sterilized glass coverslips coated with 50 µg/ml fibronectin (F1141, Sigma-Aldrich) and fixed with 4% paraformaldehyde in PBS for 20 min. […]
as §1, with “cGAS. For the analysis of SA biomarkers (53bpl/p21 and SA-β-galactosidase), fluorescence intensity thresholds were set and used consistently for all samples within each experiment.” for “cGAS.”

[6] = test system: elderly human dermal fibroblasts (HDF); assay: Micronuclei (MN) counts; details: 1 µM, 24-hour exposure (FIG. 4F)
Description: as §2
as §1, with “cGAS. For the analysis of SA biomarkers (53bpl/p21 and SA-β-galactosidase), fluorescence intensity thresholds were set and used consistently for all samples within each experiment.” for “cGAS.”

[7] = test system: elderly human dermal fibroblasts (HDF); assay: Mitotic duration by long-term phase-contrast time-lapse microscopy, elderly cells
Description: as §2
as §1, with “cGAS. For the analysis of SA biomarkers (53bpl/p21 and SA-β-galactosidase), fluorescence intensity thresholds were set and used consistently for all samples within each experiment.” for “cGAS.”
(§4) FIG. 4: Small molecule agonist of MCAK activity UMK57 rescues age-associated CIN and delays senescence. […] (D) Aneusomy index of chromosomes 7, 12 and 18 measured by interphase FISH analysis. […]

[8] = test system: neonatal (N) human dermal fibroblasts (HDF); assay: Mitotic duration by long-term phase-contrast time-lapse microscopy, neonatal cells; details: 1 µM, 24 hrs (FIG. 4A)
Description: as §2
as §1, with “cGAS. For the analysis of SA biomarkers (53bpl/p21 and SA-β-galactosidase), fluorescence intensity thresholds were set and used consistently for all samples within each experiment.” for “cGAS.”
as §4

Cc1ccc(-c2csc3ncnc(N4CCCC4)c23)cc1 [UMK57, 4-Pyrrolidin-1-yl-5-p-tolyl-thieno[2,3-d] pyrimidine]
number of stable k-MT attachments in metaphase (calcium-stable k-fiber intensity) ([1]; 24 hrs (FIG. 4B,C)): decreases the number of stable k-MT attachments in metaphase
k-fiber intensity levels in metaphase ([1]; 96 hours (FIG. 5B)): decreased k-fiber intensity levels
chromosome mis-segregation rate in binucleated (BN) cells ([2]; 24 hrs, cytochalasin D (FIG. 4E)): decreases
chromosome mis-segregation (BN cells FISH) ([2]; 96 hours (FIG. 5D)): inhibited
levels of aneuploidy (aneusomy index, interphase FISH) ([3]; 24 hrs (FIG. 4D)): decreases the levels of aneuploidy
aneuploidy (interphase FISH) ([3]; 96 hours (FIG. 5C)): inhibited
percentage of cells exhibiting SA-β-galactosidase activity ([4]; 24-hour treatment (FIG. 4H)): partially rescue
senescence markers: SA-β-gal positive cells ([4]; 96 hrs (FIG. 5F)): partial rescue
percentage of cells exhibiting the senescence biomarkers 53bp1+p21 ([5]; 24-hour treatment (FIG. 4G)): partially rescue
senescence markers: 53BP1/p21 positive cells ([5]; 96 hrs (FIG. 5E)): partial rescue
MN (micronuclei) levels [6]: partly decreased
mitotic delay of elderly cells ([7]; 1 µM, 96-hour treatment (FIG. 5A)): rescued
concentration sufficient to rescue the increased mitotic duration in elderly cells ([7]; increasing concentrations, 24-hour time-lapse (FIG. 4A)): 1 µM
effect on the mitotic progression of neonatal cultures [8]: no noticeable effect
